Experimental data reported in patent US20060069132A1, “Azolecarboxamide herbicides” (priority 2004, published 2006).

Key:
Assay in all cases: Test C postemergence herbicide test
winter barley = format: in vivo, Hordeum vulgare
In short: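 Postemergence sprays applied to plants 2 to 18 cm tall (1- to 4-leaf stage); paddy species grown to 2-leaf stage under flooding. After 12 to 14 days in greenhouse, visual rating versus untreated controls on 0–100 scale (0 no effect, 100 complete control).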

canarygrass = format: in vivo, Phalaris minor
In short: (§1)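 Visual rating, 0 (no effect) to 100 (complete control), vs. controls at 12–14 d in greenhouse. Postemergence: 1–4-leaf plants, 2–18 cm. Paddy: flooded, barnyardgrass at 2-leaf stage.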

Italian ryegrass = format: in vivo, Lolium multiflorum
In short: as §1

wheat = format: in vivo, Triticum aestivum
In short: as §1

[1] = Postemergence, 125 g ai/ha, scale 0 to 100, 0 no effect, 100 complete control
[2] = postemergence, 31 g ai/ha, scale 0 to 100
[3] = postemergence, 62 g ai/ha, scale 0 to 100 (0 no effect, 100 complete control)
[4] = Postemergence, 250 g ai/ha, scale 0 to 100, 0 no effect, 100 complete control
[5] = postemergence, 125 g ai/ha, scale 0 to 100
[6] = postemergence, 62 g ai/ha, scale 0 to 100
[7] = Postemergence, 500 g ai/ha, scale 0 to 100
[8] = Postemergence, 500 g ai/ha, scale 0 to 100, 0 no effect, 100 complete control

SMILES | Plant response rating, Barley, Winter (winter barley; [1]) | Plant response rating, Barley, Winter (winter barley; [2]) | Plant response rating, Barley, Winter (winter barley; [3]) | Plant response rating, Canarygrass (canarygrass; [4]) | Plant response rating, Canarygrass (canarygrass; [5]) | Plant response rating, Canarygrass (canarygrass; [2]) | Plant response rating, Canarygrass (canarygrass; [6]) | Plant response rating, Ryegrass, Italian (Italian ryegrass; [4]) | Plant response rating, Ryegrass, Italian (Italian ryegrass; [5]) | Plant response rating, Ryegrass, Italian (Italian ryegrass; [6]) | Plant response rating, Wheat (wheat; [4]) | Plant response rating, Wheat (wheat; [5]) | Plant response rating, Wheat (wheat; [6]) | Barley, Winter plant response rating (winter barley; [7]) | Plant response rating, Barley, Winter (winter barley; [4]) | Canarygrass plant response rating (canarygrass; [7]) | Ryegrass, Italian plant response rating (Italian ryegrass; [7]) | Wheat plant response rating (wheat; [7]) | Plant response rating, Canarygrass (canarygrass; [8]) | Plant response rating, Ryegrass, Italian (Italian ryegrass; [8]) | further results
CCn1nc(C(C)(C)C)cc1C(=O)Nc1cccc(C(=O)NCC2CC2)c1 [Compound 62] | 10 | 0 | 10 | 40 | 30 | 0 | 0 | 40 | 20 | 20 | 10 | 10 | 10 | – | – | – | – | – | – | – | Barley, Winter plant response rating (winter barley; Postemergence, 250 g ai/ha, scale 0 to 100): 10
CCCCOc1cccc(NC(=O)c2cc(C(C)(C)C)nn2CC)c1 [Compound 137] | 20 | – | 10 | 40 | 30 | – | 20 | 40 | 40 | 20 | 30 | 30 | 30 | 30 | 20 | 40 | 60 | 40 | – | – | –
CCOC(=O)c1cccc(NC(=O)c2cc(C3(C)CC3)nn2CC)c1 [Compound 295] | 35 | 35 | 35 | 35 | 35 | 25 | 30 | 65 | 40 | 40 | 45 | 45 | 45 | – | 35 | – | – | – | – | – | –
CCn1nc(C2(C)CC2)cc1C(=O)Nc1cc(C(=O)N2CC=CC2)ccc1F [Compound 301] | 30 | – | 30 | 50 | 45 | – | 35 | 45 | 45 | 35 | 55 | 45 | 40 | 40 | 30 | 50 | 65 | 40 | – | – | –
CCn1nc(C(C)(C)C)cc1C(=O)Nc1cc(OC(F)(F)F)ccc1F [Compound 338] | 30 | – | 20 | 40 | 25 | – | 20 | 50 | 30 | 25 | 35 | 25 | 25 | 40 | 35 | – | – | – | 50 | 60 | Plant response rating, Wheat (wheat; [8]): 45
CCn1nc(C(C)(C)C)cc1C(=O)Nc1cccc(OS(=O)(=O)CC)c1 [Compound 408] | 30 | – | 30 | 40 | 30 | – | 20 | – | 45 | 40 | – | 30 | 30 | 40 | 35 | – | – | – | 45 | 70 | Plant response rating, Wheat (wheat; [8]): 40
